Values of other authors, collected in patent US10548855B2, “Memantine combinations and use” (CHASE PHARMACEUTICALS CORPORATION, priority 2016, dated 2020).

Tested on: mice
Conditions: water maze, 2 mg/kg

## CC12CC3CC(C)(C1)CC(N)(C3)C2 [memantine, 3,5-dimethyladamantan-1-amine]
  effect on scopolamine-induced learning deficits: reverses scopolamine-induced learning deficits
